Assay results taken from PubChem BioAssay AID256 (DTP/NCI, 2004).
Several values for one entry are separate records, joined by “and”; a condition that tells them apart may be missing. Equal entries are not always repeated. Inconclusive results and toxic doses are left out.

System: CD2F1 mice, L1210 leukemia ip, survival T/C
Experiment: NCI In Vivo Anticancer Drug Screen. Data for tumor model L1210 Leukemia (intraperitoneal) in CD2F1 (CDF1) mice
Conditions: higher = longer survival
Procedure, shortened: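 Transplantable tumor in mice; compound-treated vs vehicle-treated groups. Read-out = treated/control ratio of the measured endpoint.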

[1] = endpoint: mean survival time, dose: 100.0 mg/kg/injection, schedule: Q01DX009 (ip), vehicle: saline with Tween-80
[2] = endpoint: mean survival time, dose: 100.0 mg/kg/injection, schedule: Q04DX003 (ip), vehicle: saline with Tween-80
[3] = endpoint: mean survival time, dose: 200.0 mg/kg/injection, schedule: Q01DX009 (ip), vehicle: saline with Tween-80
[4] = endpoint: mean survival time, dose: 200.0 mg/kg/injection, schedule: Q04DX003 (ip), vehicle: saline with Tween-80
[5] = endpoint: mean survival time, dose: 400.0 mg/kg/injection, schedule: Q01DX009 (ip), vehicle: saline with Tween-80
[6] = endpoint: mean survival time, dose: 400.0 mg/kg/injection, schedule: Q04DX003 (ip), vehicle: saline with Tween-80
[7] = endpoint: mean survival time, dose: 100.0 mg/kg/injection, schedule: Q04DX002 (ip), vehicle: saline with Tween-80
[8] = endpoint: mean survival time, dose: 200.0 mg/kg/injection, schedule: Q04DX002 (ip), vehicle: saline with Tween-80
[9] = endpoint: mean survival time, dose: 100.0 mg/kg/injection, schedule: Q04DX003 (ip), vehicle: saline
[10] = endpoint: mean survival time, dose: 200.0 mg/kg/injection, schedule: Q04DX003 (ip), vehicle: saline
[11] = endpoint: mean survival time, dose: 400.0 mg/kg/injection, schedule: Q04DX003 (ip), vehicle: saline

For `CCCCCCCCCCCC(=O)NC(=S)Nc1ncccn1`, the T/C (endpoint: mean survival time, dose: 100.0 mg/kg/injection, schedule: Q01DX001 (ip), vehicle: other) was 93 % of control, the T/C (endpoint: mean survival time, dose: 100.0 mg/kg/injection, schedule: Q01DX009 (ip), vehicle: other) was 91 % of control and 97 % of control and the T/C (endpoint: mean survival time, dose: 100.0 mg/kg/injection, schedule: Q04DX002 (ip), vehicle: other) was 98 % of control. The T/C (endpoint: mean survival time, dose: 200.0 mg/kg/injection, schedule: Q01DX001 (ip), vehicle: other) was 87 % of control, the T/C (endpoint: mean survival time, dose: 200.0 mg/kg/injection, schedule: Q01DX009 (ip), vehicle: other) was 92 % of control and 93 % of control and the T/C (endpoint: mean survival time, dose: 200.0 mg/kg/injection, schedule: Q04DX002 (ip), vehicle: other) was 102 % of control. The T/C (endpoint: mean survival time, dose: 400.0 mg/kg/injection, schedule: Q01DX001 (ip), vehicle: other) was 93 % of control, the T/C (endpoint: mean survival time, dose: 400.0 mg/kg/injection, schedule: Q01DX009 (ip), vehicle: other) was 92 % of control and 101 % of control and the T/C (endpoint: mean survival time, dose: 400.0 mg/kg/injection, schedule: Q04DX002 (ip), vehicle: other) was 87 % of control.
With `Nc1nc(N)c(N=Nc2ccccc2S(=O)(=O)O)c(N)n1` the T/C [1] was 94 % of control, the T/C [2] was 95 % of control and the T/C [3] was 108 % of control. The T/C [4] was 100 % of control, the T/C [5] was 100 % of control and the T/C [6] was 93 % of control.
In the case of `CC(C)C(=O)Nc1ccc(Cl)cc1`, the T/C [1] is reported as 100 % of control and the T/C [3] is reported as 97 % of control.
`CCC(/C=N/N=C(N)N)=N\N=C(N)N` was tested, and the T/C (endpoint: mean survival time, dose: 15.0 mg/kg/injection, schedule: Q01DX010 (ip), vehicle: saline) was 95 % of control and the T/C (endpoint: mean survival time, dose: 60.0 mg/kg/injection, schedule: Q01DX010 (ip), vehicle: saline) was 101 % of control.
In the case of `CCC(=O)OC(=N)C(=N)OC(=O)CC`, the T/C (endpoint: mean survival time, dose: 25.0 mg/kg/injection, schedule: Q04DX002 (ip), vehicle: saline with Tween-80) is reported as 98 % of control, the T/C (endpoint: mean survival time, dose: 50.0 mg/kg/injection, schedule: Q04DX002 (ip), vehicle: saline with Tween-80) is reported as 98 % of control and the T/C [7] is reported as 98 % of control. For the same compound, the T/C [8] was 95 % of control.
`N#Cc1cn(C2CCCCC2)c2[nH]c(=O)cc(O)c12` was tested, and the T/C [9] was 97 % of control, the T/C [10] was 101 % of control and the T/C [11] was 121 % of control.
In the case of `OC(c1nc2ccccc2[nH]1)C(O)c1nc2ccccc2[nH]1` (stereo unspecified), the T/C [2] is reported as 101 % of control, the T/C [4] is reported as 102 % of control and the T/C [6] is reported as 96 % of control.
For `CC1CCCC/C1=N/O` (stereo unspecified), the T/C [9] was 101 % of control, the T/C [10] was 101 % of control and the T/C [11] was 101 % of control.
`CC12CCC3C(CCC4CC(OC(=O)Cc5ccc(N(CCCl)CCCl)cc5)CCC43C)C1CCC(=O)N2` (stereo unspecified) was tested, and the T/C (endpoint: mean survival time, dose: 0.75 mg/kg/injection, schedule: Q01DX009 (ip), vehicle: saline with Tween-80) was 98 % of control, the T/C (endpoint: mean survival time, dose: 1.5 mg/kg/injection, schedule: Q01DX009 (ip), vehicle: saline with Tween-80) was 102 % of control and the T/C (endpoint: mean survival time, dose: 3.0 mg/kg/injection, schedule: Q01DX009 (ip), vehicle: saline with Tween-80) was 108 % of control. The T/C (endpoint: mean survival time, dose: 6.0 mg/kg/injection, schedule: Q01DX009 (ip), vehicle: saline with Tween-80) was 112 % of control, the T/C (endpoint: mean survival time, dose: 12.0 mg/kg/injection, schedule: Q01DX009 (ip), vehicle: saline with Tween-80) was 122 % of control and the T/C (endpoint: median survival time, dose: 3.0 mg/kg/injection, schedule: Q01DX009 (ip), vehicle: saline with Tween-80) was 115 % of control. The T/C (endpoint: median survival time, dose: 6.0 mg/kg/injection, schedule: Q01DX009 (ip), vehicle: saline with Tween-80) was 119 % of control, the T/C (endpoint: median survival time, dose: 24.0 mg/kg/injection, schedule: Q01DX009 (ip), vehicle: saline with Tween-80) was 166 % of control and 168 % of control and the T/C (endpoint: median survival time, dose: 48.0 mg/kg/injection, schedule: Q01DX009 (ip), vehicle: saline with Tween-80) was 98 % of control and 111 % of control.
`CCCCCC(C)(C)N=C=S` was tested, and the T/C [2] was 100 % of control and the T/C [4] was 96 % of control.
`COc1cc2c(cc1O)-c1cc3ccc(OC)c(OC)c3c[n+]1CC2` was tested, and the T/C (endpoint: mean survival time, dose: 25.0 mg/kg/injection, schedule: Q04DX002 (ip), vehicle: saline) was 111 % of control, the T/C (endpoint: mean survival time, dose: 25.0 mg/kg/injection, schedule: Q04DX003 (ip), vehicle: suspension in saline) was 94 % of control and the T/C (endpoint: mean survival time, dose: 50.0 mg/kg/injection, schedule: Q04DX002 (ip), vehicle: saline) was 97 % of control. The T/C (endpoint: mean survival time, dose: 50.0 mg/kg/injection, schedule: Q04DX003 (ip), vehicle: suspension in saline) was 90 % of control, the T/C (endpoint: mean survival time, dose: 100.0 mg/kg/injection, schedule: Q04DX002 (ip), vehicle: saline) was 104 % of control and the T/C (endpoint: mean survival time, dose: 100.0 mg/kg/injection, schedule: Q04DX003 (ip), vehicle: suspension in saline) was 102 % of control. The T/C (endpoint: mean survival time, dose: 200.0 mg/kg/injection, schedule: Q04DX002 (ip), vehicle: saline) was 104 % of control and the T/C (endpoint: mean survival time, dose: 200.0 mg/kg/injection, schedule: Q04DX003 (ip), vehicle: suspension in saline) was 109 % of control.
`O=S(c1ccccc1)C1OC12CCCCC2` (stereo unspecified) was tested, and the T/C [2] was 97 % of control, the T/C [4] was 98 % of control and the T/C [6] was 97 % of control.
In the case of `O=C(CCl)Nc1cc(Cl)c(Cl)cc1Cl`, the T/C [1] is reported as 97 % of control, the T/C [3] is reported as 94 % of control and the T/C [5] is reported as 102 % of control.
In the case of `O=C(CC(c1ccc(Cl)cc1)P(=O)(c1ccccc1)c1ccccc1)c1ccccc1` (stereo unspecified), the T/C [1] is reported as 90 % of control, the T/C [3] is reported as 98 % of control and the T/C [5] is reported as 97 % of control.
In the case of `CCC1(C)C(C#N)C(=O)NC(=O)C1C#N` (stereo unspecified), the T/C (endpoint: mean survival time, dose: 50.0 mg/kg/injection, schedule: Q01DX009 (ip), vehicle: saline sonified) is reported as 96 % of control, the T/C (endpoint: mean survival time, dose: 100.0 mg/kg/injection, schedule: Q01DX009 (ip), vehicle: saline sonified) is reported as 90 % of control and the T/C [2] is reported as 100 % of control. The T/C [4] was 100 % of control.
`COc1c(C)c2c(c(OC(C)=O)c1CC(=O)O)C(=O)OC2` was tested, and the T/C [7] was 108 % of control, the T/C [8] was 100 % of control and the T/C (endpoint: mean survival time, dose: 400.0 mg/kg/injection, schedule: Q04DX002 (ip), vehicle: saline with Tween-80) was 100 % of control.
In the case of `NC(=Nc1ccccc1)Nc1ccccc1` (tested in a mixture with another compound), the T/C [9] is reported as 103 % of control, the T/C [10] is reported as 97 % of control and the T/C [11] is reported as 100 % of control.
With `O=C(OCC(OC(=O)c1ccccc1)C(OC(=O)c1ccccc1)C(O)C(O)CO)c1ccccc1` (stereo unspecified) (tested in a mixture with another compound) the T/C [7] was 114 % of control and the T/C [8] was 100 % of control.
In the case of `Nc1ccc2ccc(NS(=O)(=O)N3CCCCC3)cc2c1`, the T/C (endpoint: median survival time, dose: 25.0 mg/kg/injection, schedule: Q01DX009 (ip), vehicle: saline with Tween-80) is reported as 118 % of control and 101 % of control and 106 % of control, the T/C (endpoint: median survival time, dose: 50.0 mg/kg/injection, schedule: Q01DX009 (ip), vehicle: saline with Tween-80) is reported as 100 % of control and 109 % of control and 112 % of control and the T/C (endpoint: median survival time, dose: 100.0 mg/kg/injection, schedule: Q01DX009 (ip), vehicle: saline with Tween-80) is reported as 114 % of control and 118 % of control and 119 % of control. For the same compound, the T/C (endpoint: median survival time, dose: 400.0 mg/kg/injection, schedule: Q01DX009 (ip), vehicle: saline with Tween-80) was 182 % of control.
